The text below walks through data of patent US20160257697A1, “THIOPHENE-SUBSTITUTED TETRACYCLIC COMPOUNDS AND METHODS OFUSE THEREOF FOR THE TREATMENT OF VIRAL DISEASES” (priority 2013, published 2016).

The term IC50 denotes the concentration that inhibits the measured activity by half.

Holding throughout (test): microbe, parasite or virus in culture
What all share (format): cell-based, Hepatitis C virus (HCV)

Experiment [1] relates to HCV replicon 2B. Conditions: Replicon Assay A. A digest of the protocol: (§1)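 Cells seeded 2000/well + compound; 0.5% DMSO, 5% FBS; harvest day 3, lyse. Multiplex TaqMan RT-PCR for replicon (Neo probe) and cyclophilin RNA; amounts from Ct vs log(ng) linear regression of replicon total RNA standards.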
Background: A replicon is a self-replicating genome or part of one, used to study replication in cells.

For experiment [2], the system named is HCV replicon 1A. Particulars: Replicon Assay A. A digest of the protocol: as §1
Experiment [3] deals with HCV replicon 1AY93H. Particulars: Replicon Assay A. A digest of the protocol:
as §1

The test system of experiment [4] is HCV replicon 1B. Particulars: Replicon Assay B. The procedure: In an alternate assay (“Replicon Assay B”), 1000 cells were seeded per well in a 384-well collagen coated black plate from Greiner bio-one (Cat #781946) in 5% FBS. Inhibitors of this invention were added at 24 h post-seeding, and the plates were incubated for 3 days. Cells were subsequently lysed with Qiagen lysis buffer (Cat #1062731) to extract the RNA. HCV replicon RNA level was measured by real-time PCR using the RNA-to-CT kit from Applied Biosystem (Cat #4392656) and genotype-specific primers and probes. The amplicon was located within NS5B. […] (SEQ. ID NO. 2); the probe sequence was FAM-labeled […] (SEQ. ID NO. 3).
The real-time RT-PCR reactions were run on ABI PRISM 7900HT or Viia7 Sequence Detection System using the following program: 48° C. for 30 minutes, 95° C. for 10 minutes, 40 cycles of 95° C. for 15 sec, 60° C. for 1 minutes.
Data for replicons 1A, 1AY93H and 2B were obtained using Replicon Assay A and data for replicons 1AQ30D and 1B were obtained using Replicon Assay B.

Setting [5] is: read-out: 2B IC50, HCV replicon 2B.
Where [6] appears, read: read-out: 1A Y93H IC50, HCV replicon 1A Y93H.
Setting [7] is: Hepatitis C virus, HCV replicon 1A.
Setting [8] is: HCV replicon 2B, read-out: 2B IC50.
Setting [9] is: HCV replicon 1A Y93H, read-out: 1A Y93H IC50.
Where [10] appears, read: Hepatitis C virus, read-out: 2B IC50, HCV replicon 2B.
The mark [11] stands for this setting: Hepatitis C virus, read-out: 1A Y93H IC50, HCV replicon 1A Y93H.
[12] abbreviates: Hepatitis C virus, HCV replicon 1B.

SMILES strings stand for the structures. Where two headings read alike, the source gives them in different places.

With `COC(=O)N[C@H](C(=O)N1CCC[C@H]1c1ncc(-c2cc(F)c3c(c2)OC(c2ccc(F)s2)n2c-3cc3cc(-c4cnc([C@@H]5CCCN5C(=O)[C@@H](NC(=O)OC)C(C)C)[nH]4)ccc32)[nH]1)C(C)C` (single isomer, unassigned) [Compound 13], the IC50 in experiment [1] (read-out: 2B IC50, replicon 2B) amounted to 3.79 nM; in experiment [2] (Hepatitis C virus, replicon 1A) it was 0.0019 nM; in experiment [3] (read-out: 1A Y93H IC50, replicon 1AY93H) it was 2.1 nM; in experiment [4] (Hepatitis C virus, replicon 1B), 0.0023 nM.
Consider `CCc1ccc(C2Oc3cc(-c4cnc([C@@H]5CCCN5C(=O)[C@@H](NC(=O)OC)C(C)C)[nH]4)cc(F)c3-c3cc4cc(-c5cnc([C@@H]6CCCN6C(=O)C(NC(=O)OC)C6C[C@@H](C)O[C@@H](C)C6)[nH]5)ccc4n32)s1` (single isomer, unassigned) [Compound 143], for which the IC50 in experiment [2] (replicon 1A) amounted to 0.111 nM; in experiment [4] (Hepatitis C virus, replicon 1B), 0.0059 nM.
`COC(=O)NC(C(=O)N1CCC[C@H]1c1ncc(-c2ccc3c(c2)cc2n3C(c3ccc(C4CC4)s3)Oc3cc(-c4cnc([C@@H]5CCCN5C(=O)[C@@H](NC(=O)OC)C(C)C)[nH]4)cc(F)c3-2)[nH]1)C1CCOC(C)(C)C1` (single isomer, unassigned) [Compound 225]: the concentration for half-maximal inhibition (IC50) in experiment [1] (read-out: 2B IC50, replicon 2B) came out at 13.7 nM; in experiment [2] (replicon 1A), 0.0477 nM; in experiment [4] (Hepatitis C virus, replicon 1B), 0.0102 nM.
With `COC(=O)N[C@H](C(=O)N1CCC[C@H]1c1nc(-c2cc(F)c3c(c2)OC(c2ccc(C4CC4)s2)n2c-3cc3cc(-c4c[nH]c([C@@H]5C[C@H]6C[C@H]6N5C(=O)[C@@H](NC(=O)OC)C(C)C)n4)ccc32)c[nH]1)C(C)C` (single isomer, unassigned) [Compound 720], the values for the half-inhibitory concentration (IC50) in experiment [1] (setting [5]), in experiment [2] (HCV replicon 1A) and in experiment [3] (setting [6]) were 3.99 nM, 0.0019 nM and 0.52 nM, respectively.
As for `COC(=O)N[C@H](C(=O)N1C[C@H](F)C[C@H]1c1nc(-c2ccc3c(c2)OC(c2ccc(C)s2)n2c-3cc3cc(-c4c[nH]c([C@@H]5C[C@H]6C[C@H]6N5C(=O)[C@@H](NC(=O)OC)C5CCOCC5)n4)ccc32)c[nH]1)C1CCOCC1` (single isomer, unassigned) [Compound 729], the IC50 was 0.034 nM in experiment [1] (setting [5]), 0.028 nM in experiment [2] (HCV replicon 1A) and 0.22 nM in experiment [3] (setting [6]).
The like results for `COC(=O)N[C@H](C(=O)N1C[C@H](F)C[C@H]1c1nc(-c2ccc3c(c2)OC(c2ccc(C)s2)n2c-3cc3cc(-c4c[nH]c([C@@H]5C[C@H]6C[C@H]6N5C(=O)[C@@H](NC(=O)OC)C5CCOCC5)n4)ccc32)c[nH]1)C1CCOCC1` (single isomer, unassigned) [Compound 730] were, in that order, 0.13 nM, 0.067 nM and 0.06 nM.
`COC(=O)N[C@H](C(=O)N1C[C@H](F)C[C@H]1c1nc(-c2ccc3c(c2)OC(c2ccc(C)s2)n2c-3cc3cc(-c4c[nH]c([C@@H]5C[C@H]6C[C@H]6N5C(=O)[C@@H](NC(=O)OC)C5CCOCC5)n4)ccc32)c[nH]1)C1CCOCC1` (single isomer, unassigned) [Compound 731]: the 50% inhibitory concentration (IC50) in experiment [1] (setting [5]) came out at 0.021 nM; in experiment [2] (HCV replicon 1A) it was 0.024 nM; in experiment [3] (setting [6]), 0.026 nM.
The like results for `COC(=O)N[C@H](C(=O)N1CCC[C@H]1c1ncc(-c2cc(C)c3c(c2)OC(c2ccc(C4CC4)s2)n2c-3cc3cc(-c4cnc([C@@H]5CCCN5C(=O)[C@@H](NC(=O)OC)C(C)C)[nH]4)ccc32)[nH]1)C(C)C` (single isomer, unassigned) [Compound 752] were, in that order, 0.6 nM, 0.0028 nM and 2.7 nM.
The matching figures for `COC(=O)N[C@H](C(=O)N1CCC[C@H]1c1cnc(-c2ccc3c(c2)cc2n3C(c3cc4ccccc4s3)Oc3cc(-c4cnc([C@@H]5CCCN5C(=O)[C@@H](NC(=O)OC)C5CCOCC5)[nH]4)ccc3-2)[nH]1)C1CCOCC1` (single isomer, unassigned) [Compound 809]: 4.2 nM, 0.016 nM and 0.82 nM.
Regarding `COC(=O)N[C@H](C(=O)N1CCC[C@H]1c1cnc(-c2ccc3c(c2)cc2n3C(c3cc4ccccc4s3)Oc3cc(-c4cnc([C@@H]5CCCN5C(=O)[C@@H](NC(=O)OC)C5CCOCC5)[nH]4)ccc3-2)[nH]1)C1CCOCC1` (single isomer, unassigned) [Compound 810], the half-inhibitory concentration (IC50) in experiment [1] (setting [5]) is 0.005 nM; in experiment [2] (HCV replicon 1A) it was 0.004 nM; in experiment [3] (setting [6]), 0.018 nM.
As for `COC(=O)N[C@H](C(=O)N1CCC[C@H]1c1cnc(-c2ccc3c(c2)cc2n3C(c3cc4ccccc4s3)Oc3cc(-c4cnc([C@@H]5CCCN5C(=O)[C@@H](NC(=O)OC)C5CCOCC5)[nH]4)ccc3-2)[nH]1)C1CCOCC1` (single isomer, unassigned) [Compound 811], the half-maximal inhibitory concentration (IC50) in experiment [1] (setting [5]) was determined as 0.664 nM; in experiment [2] (HCV replicon 1A) it was 0.042 nM; in experiment [3] (setting [6]) it was 0.058 nM.
In the case of `COC(=O)N[C@H](C(=O)N1CCC[C@H]1c1ncc(-c2ccc3c(c2)OC(c2cc4ccccc4s2)n2c-3cc3cc(-c4cnc([C@@H]5C[C@@H](F)CN5C(=O)[C@@H](NC(=O)OC)C5CCOCC5)[nH]4)ccc32)[nH]1)C1CCOCC1` (single isomer, unassigned) [Compound 812], the half-maximal inhibitory concentration (IC50) in experiment [1] (setting [5]) is 0.15 nM; in experiment [2] (setting [7]), 0.034 nM; in experiment [3] (setting [6]), 0.44 nM.
With `CCc1c2n(c3ccc(-c4cnc(C5CCCN5C(=O)C(NC(=O)OC)C(C)C)[nH]4)cc13)C(c1ccc(C3CC3)s1)Oc1cc(-c3cnc(C4CCCN4C(=O)C(NC(=O)OC)C(C)C)[nH]3)cc(F)c1-2` (single isomer, unassigned) [Compound 838], the IC50 in experiment [2] (HCV replicon 1A) was determined as 0.0055 nM; in experiment [4] (HCV replicon 1B) it was 0.0013 nM.
In the case of `CCc1c2n(c3ccc(-c4cnc(C5CCCN5C(=O)C(NC(=O)OC)C(C)C)[nH]4)cc13)C(c1ccc(C3CC3)s1)Oc1cc(-c3cnc(C4CCCN4C(=O)C(NC(=O)OC)C(C)C)[nH]3)cc(F)c1-2` (single isomer, unassigned) [Compound 839], the half-inhibitory concentration (IC50) is 0.971 nM in experiment [1] (setting [8]), 0.865 nM in experiment [3] (setting [9]) and 0.0023 nM in experiment [4] (HCV replicon 1B).
As for `COC(=O)N[C@H](C(=O)N1CCC[C@H]1c1ncc(-c2cc(F)c3c(c2)OC(c2ccc(C4CC4)s2)n2c-3c(C)c3cc(-c4cnc([C@@H]5CCCN5C(=O)[C@@H](NC(=O)OC)C(C)C)[nH]4)ccc32)[nH]1)C(C)C` (single isomer, unassigned) [Compound 842], the half-maximal inhibitory concentration (IC50) was found to be 0.0066 nM in experiment [2] (HCV replicon 1A) and 0.0014 nM in experiment [4] (HCV replicon 1B).
On to `COC(=O)NC(C(=O)N1CCCC1c1ncc(-c2cc(F)c3c(c2)OC(c2ccc(CC(C)(C)OC)s2)n2c-3cc3cc(-c4cnc(C5CCCN5C(=O)C(NC(=O)OC)C5CCOC(C)(C)C5)[nH]4)ccc32)[nH]1)C(C)C` (single isomer, unassigned) [Compound 850], for which the concentration for half-maximal inhibition (IC50) turned out to be 0.375 nM in experiment [1] (setting [8]), 0.0028 nM in experiment [2] (HCV replicon 1A) and 0.855 nM in experiment [3] (setting [9]).
Turning to `COC(=O)NC(C(=O)N1CCC[C@H]1c1ncc(-c2ccc3c(c2)cc2n3C(c3ccc(CC(F)(F)F)s3)Oc3cc(-c4cnc([C@@H]5CCCN5C(=O)[C@@H](NC(=O)OC)C(C)C)[nH]4)cc(F)c3-2)[nH]1)C1C[C@@H](C)O[C@@H](C)C1` (stereo partly shown) [Compound 381], the 50% inhibitory concentration (IC50) in experiment [1] (Hepatitis C virus, read-out: 2B IC50 (nM), replicon 2B) stood at 0.181 nM; in experiment [2] (Hepatitis C virus, replicon 1A), 0.0014 nM; in experiment [3] (Hepatitis C virus, read-out: 1A Y93H IC50 (nM), replicon 1AY93H), 0.141 nM.
With `COC(=O)N[C@H](C(=O)N1CCC[C@H]1c1ncc(-c2ccc3c(c2)O[C@@H](c2cc4cc(OC)ccc4s2)n2c-3cc3cc(-c4cnc([C@@H]5CCCN5C(=O)[C@@H](NC(=O)OC)C(C)C)[nH]4)ccc32)[nH]1)C(C)C` [Compound 758], the 50% inhibitory concentration (IC50) in experiment [1] (setting [10]) came out at 0.43 nM; in experiment [2] (setting [7]), 0.005 nM; in experiment [3] (setting [11]) it was 0.17 nM.
On to `COC(=O)N[C@H](C(=O)N1CCC[C@H]1c1ncc(-c2cc3c4c(c2)OC(c2ccc(Cl)s2)n2c-4c(c4cc(-c5cnc([C@@H]6CCCN6C(=O)[C@@H](NC(=O)OC)C(C)C)[nH]5)ccc42)CC3)[nH]1)C(C)C` (stereo partly shown) [Compound 834], for which the IC50 came out at 16.7 nM in experiment [1] (setting [10]), 0.0842 nM in experiment [2] (setting [7]) and 0.0488 nM in experiment [4] (setting [12]).
Turning to `CCc1c2n(c3ccc(-c4cnc([C@@H]5CCCN5C(=O)[C@@H](NC(=O)OC)C(C)C)[nH]4)cc13)C(c1ccc(Cl)s1)Oc1cc(-c3cnc([C@@H]4CCCN4C(=O)[C@@H](NC(=O)OC)C(C)C)[nH]3)cc(F)c1-2` (stereo partly shown) [Compound 837], the IC50 was 0.0025 nM in experiment [2] (setting [7]), 1.52 nM in experiment [3] (setting [11]) and 0.0019 nM in experiment [4] (setting [12]).
